Key:
Format in all cases: in vivo
[1] = system: giant foxtail (Setaria faberi); test: Test G Post-Emergence Protocol; conditions: Setaria faberi, post-emergence, 312 h, read-out: Foxtail, Giant damage rating; for pest or weed control at 15.625 g/ha: 15.625 g ai/ha, evaluated after 13 days (100=total damage to plant; 0=no damage to plant); for pest or weed control at 62.5 g/ha: 62.5 g ai/ha; for pest or weed control at 62.5 g/ha / pest or weed control at 250 g/ha: evaluated after 13 days, 100=total damage to plant, 0=no damage to plant; for pest or weed control at 250 g/ha: 250 g ai/ha
How it was run: (§1)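 Sow in soil; grow 8 d (24/16 °C, 14 h light, 65% humidity); spray 15.625/62.5/250 g/ha in acetone:water 50:50 + 0.5% Tween 20; grow on, water twice daily; score damage 0–100 at 13 d.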

[2] = system: barnyardgrass (Echinochloa crus-galli); test: Test G Post-Emergence Protocol; conditions: Echinochloa crus-galli, post-emergence, 312 h, read-out: Barnyardgrass damage rating; for pest or weed control at 15.625 g/ha: 15.625 g ai/ha, evaluated after 13 days (100=total damage to plant; 0=no damage to plant); for pest or weed control at 62.5 g/ha: 62.5 g ai/ha; for pest or weed control at 62.5 g/ha / pest or weed control at 250 g/ha: evaluated after 13 days, 100=total damage to plant, 0=no damage to plant; for pest or weed control at 250 g/ha: 250 g ai/ha
How it was run: as §1

[3] = system: redroot pigweed (Amaranthus retroflexus); test: Test G Post-Emergence Protocol; conditions: Amaranthus retroflexus, post-emergence, 312 h, read-out: Pigweed, Redroot damage rating; for pest or weed control at 15.625 g/ha: 15.625 g ai/ha, evaluated after 13 days (100=total damage to plant; 0=no damage to plant); for pest or weed control at 62.5 g/ha: 62.5 g ai/ha; for pest or weed control at 62.5 g/ha / pest or weed control at 250 g/ha: evaluated after 13 days, 100=total damage to plant, 0=no damage to plant; for pest or weed control at 250 g/ha: 250 g ai/ha
How it was run: as §1

[4] = system: velvetleaf (Abutilon theophrasti); test: Test G Post-Emergence Protocol; conditions: Abutilon theophrasti, post-emergence, 312 h, read-out: Velvetleaf damage rating; for pest or weed control at 15.625 g/ha: 15.625 g ai/ha, evaluated after 13 days (100=total damage to plant; 0=no damage to plant); for pest or weed control at 62.5 g/ha: 62.5 g ai/ha; for pest or weed control at 62.5 g/ha / pest or weed control at 250 g/ha: evaluated after 13 days, 100=total damage to plant, 0=no damage to plant; for pest or weed control at 250 g/ha: 250 g ai/ha
How it was run: as §1

corn (Zea mays) [5] = test: Test G Post-Emergence Protocol; conditions: Zea mays, post-emergence, 312 h, read-out: Corn damage rating; for plant injury at 15.625 g/ha: 15.625 g ai/ha, evaluated after 13 days (100=total damage to plant; 0=no damage to plant); for plant injury at 62.5 g/ha: 62.5 g ai/ha; for plant injury at 62.5 g/ha / plant injury at 250 g/ha: evaluated after 13 days, 100=total damage to plant, 0=no damage to plant; for plant injury at 250 g/ha: 250 g ai/ha
How it was run: as §1

[6] = system: ivy-leaved morning glory (Ipomoea hederacea); test: Test G Post-Emergence Protocol; conditions: Ipomoea, post-emergence, 312 h, read-out: Morningglory, Ivy-leaved damage rating; for pest or weed control at 15.625 g/ha: 15.625 g ai/ha, evaluated after 13 days (100=total damage to plant; 0=no damage to plant); for pest or weed control at 62.5 g/ha: 62.5 g ai/ha; for pest or weed control at 62.5 g/ha / pest or weed control at 250 g/ha: evaluated after 13 days, 100=total damage to plant, 0=no damage to plant; for pest or weed control at 250 g/ha: 250 g ai/ha
How it was run: as §1

[7] = system: giant foxtail (Setaria faberi); test: Test G Pre-Emergence Protocol; conditions: Setaria faberi, pre-emergence, 312 h, evaluated after 13 days; for pest or weed control at 15.625 g/ha: 15.625 g ai/ha; for pest or weed control at 15.625 g/ha / pest or weed control at 250 g/ha: read-out: Foxtail, Giant damage rating (100=total damage to plant; 0=no damage to plant); for pest or weed control at 62.5 g/ha: 62.5 g ai/ha, 100=total damage to plant, 0=no damage to plant, read-out: Foxtail, Giant damage rating; for pest or weed control at 250 g/ha: 250 g ai/ha
How it was run: (§2)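 Spraying took place one day after sowing, at 15.625, 62.5 or 250 g/ha, using an acetone/water (50:50) spray solution containing 0.5% Tween 20. Plants were kept under glasshouse conditions (24/16 °C, 14 h light, 65% humidity, watered twice daily), and injury was rated 0–100 at day 13.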

[8] = system: barnyardgrass (Echinochloa crus-galli); test: Test G Pre-Emergence Protocol; conditions: Echinochloa crus-galli, pre-emergence, 312 h, evaluated after 13 days; for pest or weed control at 15.625 g/ha: 15.625 g ai/ha; for pest or weed control at 15.625 g/ha / pest or weed control at 250 g/ha: read-out: Barnyardgrass damage rating (100=total damage to plant; 0=no damage to plant); for pest or weed control at 62.5 g/ha: 62.5 g ai/ha, 100=total damage to plant, 0=no damage to plant, read-out: Barnyardgrass damage rating; for pest or weed control at 250 g/ha: 250 g ai/ha
How it was run: as §2

[9] = system: redroot pigweed (Amaranthus retroflexus); test: Test G Pre-Emergence Protocol; conditions: Amaranthus retroflexus, pre-emergence, 312 h, evaluated after 13 days; for pest or weed control at 15.625 g/ha: 15.625 g ai/ha; for pest or weed control at 15.625 g/ha / pest or weed control at 250 g/ha: read-out: Pigweed, Redroot damage rating (100=total damage to plant; 0=no damage to plant); for pest or weed control at 62.5 g/ha: 62.5 g ai/ha, 100=total damage to plant, 0=no damage to plant, read-out: Pigweed, Redroot damage rating; for pest or weed control at 250 g/ha: 250 g ai/ha
How it was run: as §2

[10] = system: velvetleaf (Abutilon theophrasti); test: Test G Pre-Emergence Protocol; conditions: Abutilon theophrasti, pre-emergence, 312 h, evaluated after 13 days; for pest or weed control at 15.625 g/ha: 15.625 g ai/ha; for pest or weed control at 15.625 g/ha / pest or weed control at 250 g/ha: read-out: Velvetleaf damage rating (100=total damage to plant; 0=no damage to plant); for pest or weed control at 62.5 g/ha: 62.5 g ai/ha, 100=total damage to plant, 0=no damage to plant, read-out: Velvetleaf damage rating; for pest or weed control at 250 g/ha: 250 g ai/ha
How it was run: as §2

corn (Zea mays) [11] = test: Test G Pre-Emergence Protocol; conditions: Zea mays, pre-emergence, 312 h, evaluated after 13 days; for plant injury at 15.625 g/ha: 15.625 g ai/ha; for plant injury at 15.625 g/ha / plant injury at 250 g/ha: read-out: Corn damage rating (100=total damage to plant; 0=no damage to plant); for plant injury at 62.5 g/ha: 62.5 g ai/ha, 100=total damage to plant, 0=no damage to plant, read-out: Corn damage rating; for plant injury at 250 g/ha: 250 g ai/ha
How it was run: as §2

[12] = system: ivy-leaved morning glory (Ipomoea hederacea); test: Test G Pre-Emergence Protocol; conditions: Ipomoea, pre-emergence, 312 h, evaluated after 13 days; for pest or weed control at 15.625 g/ha: 15.625 g ai/ha; for pest or weed control at 15.625 g/ha / pest or weed control at 250 g/ha: read-out: Morningglory, Ivy-leaved damage rating (100=total damage to plant; 0=no damage to plant); for pest or weed control at 62.5 g/ha: 62.5 g ai/ha, 100=total damage to plant, 0=no damage to plant, read-out: Morningglory, Ivy-leaved damage rating; for pest or weed control at 250 g/ha: 250 g ai/ha
How it was run: as §2

CON1C[C@H](c2ccc(C(F)(F)F)cc2)[C@@H](C(=O)Nc2cccc(F)c2F)C1=O (racemic) [Compound 1836] was tested, and the pest or weed control at 15.625 g/ha [1] was 50%, the pest or weed control at 62.5 g/ha [1] was 70% and the pest or weed control at 250 g/ha [1] was 70%. The pest or weed control at 15.625 g/ha [2] was 0%, the pest or weed control at 62.5 g/ha [2] was 70% and the pest or weed control at 250 g/ha [2] was 80%. It also gave a pest or weed control at 15.625 g/ha [3] of 20%, a pest or weed control at 62.5 g/ha [3] of 60% and a pest or weed control at 250 g/ha [3] of 70%. It also gave a pest or weed control at 15.625 g/ha [4] of 10%, a pest or weed control at 62.5 g/ha [4] of 20% and a pest or weed control at 250 g/ha [4] of 50%. It also gave a plant injury at 15.625 g/ha (corn (Zea mays) [5]) of 0%, a plant injury at 62.5 g/ha (corn (Zea mays) [5]) of 10% and a plant injury at 250 g/ha (corn (Zea mays) [5]) of 70%. It also gave a pest or weed control at 15.625 g/ha [6] of 20%, a pest or weed control at 62.5 g/ha [6] of 20% and a pest or weed control at 250 g/ha [6] of 40%. For the same compound, the pest or weed control at 15.625 g/ha [7] was 50%, the pest or weed control at 62.5 g/ha [7] was 80% and the pest or weed control at 250 g/ha [7] was 90%. It also gave a pest or weed control at 15.625 g/ha [8] of 10%, a pest or weed control at 62.5 g/ha [8] of 70% and a pest or weed control at 250 g/ha [8] of 80%. For the same compound, the pest or weed control at 15.625 g/ha [9] was 0%, the pest or weed control at 62.5 g/ha [9] was 50% and the pest or weed control at 250 g/ha [9] was 50%. The pest or weed control at 15.625 g/ha [10] was 0%, the pest or weed control at 62.5 g/ha [10] was 0% and the pest or weed control at 250 g/ha [10] was 30%. It also gave a plant injury at 15.625 g/ha (corn (Zea mays) [11]) of 10%, a plant injury at 62.5 g/ha (corn (Zea mays) [11]) of 10% and a plant injury at 250 g/ha (corn (Zea mays) [11]) of 80%. For the same compound, the pest or weed control at 15.625 g/ha [12] was 10%, the pest or weed control at 62.5 g/ha [12] was 20% and the pest or weed control at 250 g/ha [12] was 30%.
In the case of CN1C[C@H](c2ccc(Cl)cc2)[C@@H](C(=O)Nc2cccnc2F)C1=O [Compound 1810], the pest or weed control at 15.625 g/ha [1] is reported as 20%, the pest or weed control at 62.5 g/ha [1] is reported as 80% and the pest or weed control at 250 g/ha [1] is reported as 80%. The pest or weed control at 15.625 g/ha [2] was 0%, the pest or weed control at 62.5 g/ha [2] was 60% and the pest or weed control at 250 g/ha [2] was 80%. The pest or weed control at 15.625 g/ha [3] was 0%, the pest or weed control at 62.5 g/ha [3] was 10% and the pest or weed control at 250 g/ha [3] was 60%. It also gave a pest or weed control at 15.625 g/ha [4] of 20%, a pest or weed control at 62.5 g/ha [4] of 30% and a pest or weed control at 250 g/ha [4] of 40%. The plant injury at 15.625 g/ha (corn (Zea mays) [5]) was 0%, the plant injury at 62.5 g/ha (corn (Zea mays) [5]) was 0% and the plant injury at 250 g/ha (corn (Zea mays) [5]) was 50%. It also gave a pest or weed control at 15.625 g/ha [6] of 20%, a pest or weed control at 62.5 g/ha [6] of 60% and a pest or weed control at 250 g/ha [6] of 20%. It also gave a pest or weed control at 15.625 g/ha [7] of 80%, a pest or weed control at 62.5 g/ha [7] of 90% and a pest or weed control at 250 g/ha [7] of 90%. It also gave a pest or weed control at 15.625 g/ha [8] of 60%, a pest or weed control at 62.5 g/ha [8] of 90% and a pest or weed control at 250 g/ha [8] of 90%. For the same compound, the pest or weed control at 15.625 g/ha [9] was 0%, the pest or weed control at 62.5 g/ha [9] was 40% and the pest or weed control at 250 g/ha [9] was 80%. The pest or weed control at 15.625 g/ha [10] was 0%, the pest or weed control at 62.5 g/ha [10] was 40% and the pest or weed control at 250 g/ha [10] was 70%. The plant injury at 15.625 g/ha (corn (Zea mays) [11]) was 20%, the plant injury at 62.5 g/ha (corn (Zea mays) [11]) was 30% and the plant injury at 250 g/ha (corn (Zea mays) [11]) was 90%. For the same compound, the pest or weed control at 15.625 g/ha [12] was 0%, the pest or weed control at 62.5 g/ha [12] was 30% and the pest or weed control at 250 g/ha [12] was 70%.

— patent publication US12077503B2, “Substituted cyclic amides and their use as herbicides” (FMC CORPORATION, priority 2015, dated 2024)
